Consider one substance from patent US7910723B2, “IG20 splice variants therapeutics for cancer” (The Board of Trustees of the University of Illinois, priority 2006, dated 2011).

The subject of the data set is PA-1 ovarian carcinoma cells. Kind of data set: Spontaneous apoptosis of PA-1 ovarian carcinoma cells. The format is cell-based. As to conditions: PA-1, 72 hours post-transduction. As for the experimental part: The effects of IG20 down-modulation in PA-1 cells were analyzed. Down-modulation of endogenous IG20 in PA-1 cells was analyzed. RT-PCR of IG20-SVs using F2-B2 primers from PA-1 cells 72 hours post-transduction was performed. Amplification of only IG20pa and MADD using 13L-F and B2 primers was performed. Nuclear Condensation was also determined. 72 hours post-transduction, PA-1 cells were stained with Hoechst stain and analyzed by FACS. Mitochondrial Depolarization was performed. 72 hours post transduction, PA-1 cells were stained with TMRM and analyzed by FACS.
Hoechst Staining. 5×10^5 transduced cells were collected and washed in cold PBS. 1 jig/mL Hoechst 33342 and 5 jig/mL Propidium Iodide (Sigma, St. Louis, Mo.) were used to stain cells for five minutes. Cells with condensed chromatin were analyzed using a BD-LSR (Becton Dickinson, N.J.). Highly PI-positive cells which represent necrotic or late-apoptotic cells were excluded from the analysis. Only GFP-positive cells were included in the analysis.
TMRM staining. 5×10^5 transduced cells were collected and washed in cold PBS and then stained with 100 nM tetramethylrhodamine methyl ester (Molecular Probes, Invitrogen, CA) for 15 minutes at 37° C. Cells were washed with cold PBS and then subjected to FACS analysis using a FACS Calibur. Only GFP-positive (shRNA-expressing) cells were included in the analysis.

“13L-shRNA: shRNA targeting exon 13L (IG20, MADD), 5′ CGGCGAATCTATGACAATC-3′ (SEQ ID NO: 4)”: the “Cells that underwent spontaneous apoptosis” value was determined as 50%.
